These results are taken from PubChem BioAssay (NCI).

Where “and” joins values, the source holds several entries; their conditions need not be identical. Equal entries are not always repeated.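 Five concentrations, 48 hours, 96-well plates. The concentration for 50% growth inhibition is given as GI50. TGI is the concentration that stops growth completely.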 *1 amine or outer side, *2 acyl side, *3 side chain or, on linkers, in order; H or OH if unused. Where a SMILES comes first, the peptide text is derived from it. Bridges are numbered along the chain shown (N, C = ends). [ ]: non-standard residue; d: D form. ξ: configuration not given here. X4 = CCC(C)C(N[*:1])C(O)CC(=O)O[C@H](C(=O)C(C)C(=O)[*:2])C(C)C; NMeY = CN[C@@H](Cc1ccc(O)cc1)C(=O)O; X9 = O=C([C@@H]1CC(O)CN1[*:1])[*:2]; ξNMeL = CNC(CC(C)C)C(=O)O; ξT = CC(O)C(N)C(=O)O

What all share (experiment): NCI anticancer screen, dose series, 48 h
Test [1] has as its system SF-295 CNS.
The subject of test [2] is SN12C renal.
For test [3], the system named is UACC-257 melanoma.
The test system of test [4] is K-562 leukemia.
In test [5] the test system is SF-539 CNS.
Test [6] concerns KM12 colon.
In test [7] the test system is IGROV1 ovarian.
Test [8] deals with MOLT-4 leukemia.
In test [9] the test system is T-47D breast.
Test [10] has as its system MDA-MB-231 breast.

For `OCCN(CO)CN(CN(CO)CCO)c1nc(N(CN(CO)CCO)CN(CO)CCO)nc(N(CN(CO)CCO)CN(CO)CCO)n1`, the GI50 in test [1] was 1.39 ng/mL; in test [2], 1.49 ng/mL; in test [3] it was 1.42 ng/mL; in test [4], 0.559 ng/mL; in test [5], 1.42 ng/mL; in test [6], 1.21 ng/mL. The GI50 was 1.75 ng/mL in test [7], 1.51 ng/mL in test [8], 1.09 ng/mL in [9] and 1.01 ng/mL in [10]. Further, the TGI in [1] worked out at 3.94 ng/mL; in test [2], 6.06 ng/mL; in test [3] it was 3.21 ng/mL; in test [4] it was 10.6 ng/mL; in test [5], 3.91 ng/mL; in test [6], 2.8 ng/mL. The TGI in [7] stood at 5.46 ng/mL; in test [8], 4.49 ng/mL; in test [9], 3.21 ng/mL; in test [10], 3.23 ng/mL.
For `COC(=O)Nc1ccc2ccc3c(NC(=O)OC)ccc4ccc1c2c43` (tested in a mixture with another compound), the GI50 in test [1] is 5.25 µM; in test [2], 18.9 µM; in [3], 21.8 µM; in test [4], 3.29 µM; in test [5], 6.76 µM; in [6], 3.4 µM. Further, the GI50 in [7] is 7.98 µM; in [8] it was 7.07 µM; in test [9], 9.23 µM; in [10], 7.95 µM. The TGI in [1] is 30.2 µM; in [2], > 50 µM; in [3] it was > 50 µM; in [4] it was > 50 µM; in test [5] it was 17.8 µM; in [6], > 50 µM. The TGI in test [7] was > 50 µM; in [8], 33.7 µM; in test [9], 35.6 µM; in [10], 35.7 µM.
As for `C[C@]12CC[C@H]3[C@@H](CCC4=CC(=O)CC[C@@H]43)[C@@H]1CC[C@@H]2OC1(O)C(=O)c2ccccc2C1=O`, the TGI in test [1] was > 100 µM; in [2], 34.4 µM; in [3], > 100 µM; in [4], > 100 µM; in [5], > 100 µM; in [6], > 100 µM. The TGI in test [7] is > 100 µM; in [8], 92.8 µM; in test [9], > 100 µM; in test [10], > 100 µM.
`CCC(C)C1NC(=O)C(NC(=O)C(CC(C)C)N(C)C(=O)[C@@H]2CC(O)CN2)C(C)OC(=O)[C@H](Cc2ccc(OC)cc2)N(C)C(=O)[C@@H]2CCCN2C(=O)[C@H](CC(C)C)NC(=O)C(C)C(=O)[C@H](C(C)C)OC(=O)CC1O` (some centres not stated) (H-[X9][ξNMeL][ξT][X4]LP[NMeY](Me); ester 3-C): the GI50 is 0.0166 µM in test [1], 0.0109 µM in test [2] and 0.0369 µM in test [10]. Also, the TGI in test [1] is 0.286 µM and 0.304 µM; in [2] it was 0.0759 µM and 0.682 µM; in test [3], 0.185 µM and 0.608 µM; in test [4], 0.114 µM and 0.131 µM; in [5], 0.0152 µM and 0.0395 µM; in test [6] it was 0.105 µM. Also, the TGI is 0.107 µM and 0.141 µM in test [7]; 0.0426 µM and 0.0387 µM in [8]; 0.0657 µM and 0.0994 µM in test [9].
Regarding `C#Cc1cccc(NC(=O)Nc2ccc(NC(=O)CCl)cc2)c1`, the GI50 in test [1] is > 82.5 µM; in test [2] it was 12.7 µM; in test [3], > 82.5 µM; in [4] it was 15.5 µM; in [5], 13.3 µM; in test [6] it was 18.9 µM. The GI50 in [7] was 12.1 µM; in test [8] it was 9.6 µM; in test [9], 15.9 µM; in [10], 14.8 µM. The TGI in test [1] was > 82.5 µM; in test [2], 29.8 µM; in [3] it was > 82.5 µM; in test [4] it was 53.9 µM; in [5], 25 µM; in test [6], 63.8 µM. For the same compound, the TGI in test [7] was 25.5 µM; in [8], 33.2 µM; in test [9], 69.8 µM; in test [10], 34 µM.
Take `Cc1ccc(NC(=O)c2ccnc(C(F)(F)F)c2)cc1-c1cc(OCCO)nc(N2CCOCC2)c1`: the GI50 is 3.57 µM in [1]; 3.31 µM in test [2]; 0.6 µM in test [3]; 1.86 µM in test [4]; 2.55 µM in test [5]; 2.28 µM in test [6]. In addition, the GI50 in test [7] is 1.61 µM; in test [8], 3.5 µM; in test [9], 3.31 µM; in [10], 0.688 µM. Also, the TGI in test [1] amounted to 17.6 µM; in [2] it was 28.6 µM; in test [3], 12.4 µM; in [4] it was 41.6 µM; in [5], 11.8 µM; in test [6], 22.1 µM. Besides, the TGI is 40 µM in [7], > 100 µM in test [8], > 100 µM in test [9] and 17.5 µM in test [10].
